Test results reported in the supplement of paper PMC11451515.

How the values were obtained:
Conditions in all cases: 48 h
[1] = test system: NOMO1; test: cell viability relative to DMSO control; higher = less cytotoxic
In short: (§1)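 NOMO1 or SEM (500 cells/well) or P12-Ichikawa (1000 cells/well) leukemia cells were adapted for at least four passages in each medium. They were seeded in 1536-well plates (5 μl) and pin-dosed with library compounds in DMSO over an 11-point threefold series, 47 μM to 0.79 nM. CellTiter-Glo One luminescence was read after 48 h at 37°C. Viability is the per-plate percentage relative to DMSO wells, with cell-free wells as background.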

[2] = test system: P12-Ichikawa; test: as above
In short: as §1

[3] = test system: SEM cells; test: as above
In short: as §1

[4] = test system: NOMO1; test: AUC of viability dose-response curve (% viability x log10 dose units); higher = less sensitive
In short: (§2)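 Leukemia cells adapted to each medium were seeded at 500 or 1000 cells/well in 1536-well plates and dosed with library compounds in DMSO at 11 threefold doses from 47 μM to 0.79 nM for 48 h at 37°C. CellTiter-Glo One luminescence was normalised per plate to DMSO and cell-free wells, then fitted with a four-parameter log-logistic model over log10 doses. Area under the curve was taken from this fit by the trapezoidal rule, with curves above full viability scaled and curves failing quality control removed.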

[5] = test system: P12-Ichikawa; test: as above
In short: as §2

[6] = test system: SEM cells; test: as above
In short: as §2

Cc1cc(SCc2sc(-c3ccc(C(F)(F)F)c(F)c3)nc2C)ccc1OCC(=O)O
cell viability [%]
Conditions	[1]	[2]	[3]
HPLM + 10% dialyzed FBS, 0.000781 µM	104	106	104
HPLM + 10% dialyzed FBS, 0.00234 µM	110	104	107
HPLM + 10% dialyzed FBS, 0.00702 µM	120	100	105
HPLM + 10% dialyzed FBS, 0.0211 µM	87.7	92.4	40.9
HPLM + 10% dialyzed FBS, 0.0632 µM	114	105	103
HPLM + 10% dialyzed FBS, 0.19 µM	103	106	109
HPLM + 10% dialyzed FBS, 0.569 µM	110	106	108
HPLM + 10% dialyzed FBS, 1.71 µM	95.4	101	111
HPLM + 10% dialyzed FBS, 5.12 µM	93.7	100	105
HPLM + 10% dialyzed FBS, 15.4 µM	96.6	86.2	98.9
HPLM + 10% dialyzed FBS, 46.1 µM	92.9	91.5	96.1
RPMI 5 mM glucose + 10% FBS, 0.000781 µM	98.2	98.4	102
RPMI 5 mM glucose + 10% FBS, 0.00234 µM	90.4	102	74.9
RPMI 5 mM glucose + 10% FBS, 0.00702 µM	86	93.1	96.7
RPMI 5 mM glucose + 10% FBS, 0.0211 µM	90.3	81.6	43.2
RPMI 5 mM glucose + 10% FBS, 0.0632 µM	91	97.3	100
RPMI 5 mM glucose + 10% FBS, 0.19 µM	98.8	99.7	107
RPMI 5 mM glucose + 10% FBS, 0.569 µM	99.6	94.4	99.4
RPMI 5 mM glucose + 10% FBS, 1.71 µM	88.8	93.4	101
RPMI 5 mM glucose + 10% FBS, 5.12 µM	88.7	96.7	104
RPMI 5 mM glucose + 10% FBS, 15.4 µM	92.6	89.5	93.8
RPMI 5 mM glucose + 10% FBS, 46.1 µM	86.8	87.9	103
RPMI 5 mM glucose + 10% dialyzed FBS, 0.000781 µM	99.5	93.3	93.4
RPMI 5 mM glucose + 10% dialyzed FBS, 0.00234 µM	103	94.4	93.3
RPMI 5 mM glucose + 10% dialyzed FBS, 0.00702 µM	93.5	96.7	106
RPMI 5 mM glucose + 10% dialyzed FBS, 0.0211 µM	95	92.8	48.4
RPMI 5 mM glucose + 10% dialyzed FBS, 0.0632 µM	99.2	89.5	93.6
RPMI 5 mM glucose + 10% dialyzed FBS, 0.19 µM	111	97	104
RPMI 5 mM glucose + 10% dialyzed FBS, 0.569 µM	97.9	93.6	100
RPMI 5 mM glucose + 10% dialyzed FBS, 1.71 µM	94	92.8	100
RPMI 5 mM glucose + 10% dialyzed FBS, 5.12 µM	104	98	91.6
RPMI 5 mM glucose + 10% dialyzed FBS, 15.4 µM	87.4	80.9	101
RPMI 5 mM glucose + 10% dialyzed FBS, 46.1 µM	97	76.3	96.5

AUC of viability dose-response curve
Conditions	[4]	[5]	[6]
HPLM + 10% dialyzed FBS	458	466	461
RPMI 5 mM glucose + 10% FBS	439	449	432
RPMI 5 mM glucose + 10% dialyzed FBS	467	439	446

CC1=CC2=C(O1)C(=C3OC(=O)\C=C(C)/C3=C2)C
cell viability [%]
Conditions	[1]	[2]	[3]
HPLM + 10% dialyzed FBS, 0.000781 µM	79.8	105	70.2
HPLM + 10% dialyzed FBS, 0.00234 µM	98.7	116	81.2
HPLM + 10% dialyzed FBS, 0.00702 µM	90.9	113	86.8
HPLM + 10% dialyzed FBS, 0.0211 µM	114	109	88.7
HPLM + 10% dialyzed FBS, 0.0632 µM	104	113	84
HPLM + 10% dialyzed FBS, 0.19 µM	123	111	84.5
HPLM + 10% dialyzed FBS, 0.569 µM	125	117	83.8
HPLM + 10% dialyzed FBS, 1.71 µM	121	111	92.5
HPLM + 10% dialyzed FBS, 5.12 µM	95.2	108	90.6
HPLM + 10% dialyzed FBS, 15.4 µM	124	102	88.9
HPLM + 10% dialyzed FBS, 46.1 µM	116	99.6	74.1
RPMI 5 mM glucose + 10% FBS, 0.000781 µM	114	89.6	72
RPMI 5 mM glucose + 10% FBS, 0.00234 µM	102	107	91.5
RPMI 5 mM glucose + 10% FBS, 0.00702 µM	112	105	93.7
RPMI 5 mM glucose + 10% FBS, 0.0211 µM	115	106	96.8
RPMI 5 mM glucose + 10% FBS, 0.0632 µM	125	103	86.7
RPMI 5 mM glucose + 10% FBS, 0.19 µM	108	107	103
RPMI 5 mM glucose + 10% FBS, 0.569 µM	114	118	98.3
RPMI 5 mM glucose + 10% FBS, 1.71 µM	102	106	103
RPMI 5 mM glucose + 10% FBS, 5.12 µM	113	107	105
RPMI 5 mM glucose + 10% FBS, 15.4 µM	106	102	92.2
RPMI 5 mM glucose + 10% FBS, 46.1 µM	106	96.8	91
RPMI 5 mM glucose + 10% dialyzed FBS, 0.000781 µM	91.2	102	89
RPMI 5 mM glucose + 10% dialyzed FBS, 0.00234 µM	92.2	112	100
RPMI 5 mM glucose + 10% dialyzed FBS, 0.00702 µM	99.8	110	94.8
RPMI 5 mM glucose + 10% dialyzed FBS, 0.0211 µM	102	111	102
RPMI 5 mM glucose + 10% dialyzed FBS, 0.0632 µM	107	113	93.4
RPMI 5 mM glucose + 10% dialyzed FBS, 0.19 µM	98	115	107
RPMI 5 mM glucose + 10% dialyzed FBS, 0.569 µM	112	110	109
RPMI 5 mM glucose + 10% dialyzed FBS, 1.71 µM	105	115	104
RPMI 5 mM glucose + 10% dialyzed FBS, 5.12 µM	114	104	121
RPMI 5 mM glucose + 10% dialyzed FBS, 15.4 µM	102	105	111
RPMI 5 mM glucose + 10% dialyzed FBS, 46.1 µM	114	86.8	105

AUC of viability dose-response curve
Conditions	[4]	[5]	[6]
HPLM + 10% dialyzed FBS	446	468	404
RPMI 5 mM glucose + 10% FBS	466	469	453
RPMI 5 mM glucose + 10% dialyzed FBS	451	468	447
